Measurements as given in PubChem BioAssay (NCI).
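Assay format: 96-well plates, 48-hour exposure. Definition used: TGI = concentration required for complete inhibition of growth.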

Columns and labels:
Assay in all cases: growth of human tumour cells (NCI), 48 h
[1] = tested on: SK-OV-3 ovarian
[2] = tested on: MDA-MB-231 breast
[3] = tested on: M14 melanoma
[4] = tested on: HS 578T breast
[5] = tested on: T-47D breast
[6] = tested on: BT-549 breast
[7] = tested on: HOP-92 NSCLC
[8] = tested on: IGROV1 ovarian
[9] = tested on: NCI/ADR-RES ovarian
[10] = tested on: SW-620 colon
[11] = tested on: RPMI-8226 leukemia
[12] = tested on: ACHN renal
[13] = tested on: SK-MEL-5 melanoma
[14] = tested on: UACC-257 melanoma
[15] = tested on: MDA-MB-435
[16] = tested on: HT29 colon
[17] = tested on: UO-31 renal
[18] = tested on: LOX IMVI melanoma
[19] = tested on: 786-0 renal
[20] = tested on: OVCAR-5 ovarian
[21] = tested on: DU-145 prostate
[22] = tested on: OVCAR-8 ovarian
[23] = tested on: MOLT-4 leukemia
[24] = tested on: TK-10 renal
[25] = tested on: EKVX NSCLC
[26] = tested on: RXF 393 renal
[27] = tested on: NCI-H522 lung
[28] = tested on: OVCAR-3 ovarian
[29] = tested on: CCRF-CEM leukemia
[30] = tested on: HL-60(TB) leukemia
[31] = tested on: NCI-H226 lung
[32] = tested on: SF-268 CNS
[33] = tested on: K-562 leukemia
[34] = tested on: MCF7 breast
[35] = tested on: HCC-2998 colon
[36] = tested on: MDA-N
[37] = tested on: OVCAR-4 ovarian
[38] = tested on: SR leukemia
[39] = tested on: SK-MEL-28 melanoma
[40] = tested on: SF-539 CNS
[41] = tested on: KM12 colon
[42] = tested on: CAKI-1 renal
[43] = tested on: SN12C renal
[44] = tested on: SNB-19 CNS
[45] = tested on: HCT-15 colon
[46] = tested on: U251 CNS
[47] = tested on: HCT-116 colon
[48] = tested on: MALME-3M melanoma
[49] = tested on: SK-MEL-2 melanoma
[50] = tested on: COLO 205 colon
[51] = tested on: UACC-62 melanoma
[52] = tested on: HOP-62 NSCLC
[53] = tested on: NCI-H23 lung
[54] = tested on: SF-295 CNS
[55] = tested on: A549 NSCLC
[56] = tested on: NCI-H460 lung
[57] = tested on: PC-3 prostate
[58] = tested on: SNB-75 CNS
[59] = tested on: A498 renal

Compound: Nc1nc(N)c(-c2cccc(C(F)(F)F)c2)c(Cc2cccc(C(F)(F)F)c2)n1
- TGI [1]: 28.1 µM
- TGI [2]: 26.2 µM
- TGI [3]: 17.4 µM
- TGI [4]: 35 µM
- TGI [5]: 32.4 µM
- TGI [6]: 22.4 µM
- TGI [7]: 25.8 µM
- TGI [8]: 19.3 µM
- TGI [9]: 23.1 µM
- TGI [10]: 26.7 µM
- TGI [11]: 21.6 µM
- TGI [12]: 13.5 µM
- TGI [13]: 17.6 µM
- TGI [14]: 20.2 µM
- TGI [15]: 22.5 µM
- TGI [16]: 10.9 µM
- TGI [17]: 19.4 µM
- TGI [18]: 17.9 µM
- TGI [19]: 15.3 µM
- TGI [20]: 18.8 µM
- TGI [21]: 21.5 µM
- TGI [22]: 24.6 µM
- TGI [23]: 17.7 µM
- TGI [24]: 20.9 µM
- TGI [25]: 21.1 µM
- TGI [26]: 22.5 µM
- TGI [27]: 15.4 µM
- TGI [28]: 22.1 µM
- TGI [29]: 44.3 µM
- TGI [30]: 17.7 µM
- TGI [31]: 30.1 µM
- TGI [32]: 20 µM
- TGI [33]: 17.7 µM
- TGI [34]: 18.5 µM
- TGI [35]: 11.3 µM
- TGI [36]: 17.9 µM
- TGI [37]: 31 µM
- TGI [38]: 17.5 µM
- TGI [39]: 24.8 µM
- TGI [40]: 16.6 µM
- TGI [41]: 21.7 µM
- TGI [42]: 21.9 µM
- TGI [43]: 15.3 µM
- TGI [44]: 19.2 µM
- TGI [45]: 16.5 µM
- TGI [46]: 29.6 µM
- TGI [47]: 12.2 µM
- TGI [48]: 25.7 µM
- TGI [49]: 20.7 µM
- TGI [50]: 19.6 µM
- TGI [51]: 14.8 µM
- TGI [52]: 30.1 µM
- TGI [53]: 13 µM
- TGI [54]: 22.7 µM
- TGI [55]: 13.3 µM
- TGI [56]: 13.5 µM
- TGI [57]: 24.1 µM
- TGI [58]: 29 µM
- TGI [59]: 15.9 µM

Compound: N#CC12CC3=C(N=C1NC1=C(CCc4ccccc41)C2)c1ccccc1CC3 (stereo not drawn)
- TGI [1]: 27.6 µM
- TGI [2]: > 57.5 µM
- TGI [3]: 17.6 µM
- TGI [4]: > 34.5 µM
- TGI [5]: > 96 µM
- TGI [6]: 65.3 µM
- TGI [7]: 41.4 µM
- TGI [8]: > 40.3 µM
- TGI [9]: 29.5 µM
- TGI [10]: > 42.4 µM
- TGI [11]: 4.15 µM
- TGI [12]: > 100 µM
- TGI [13]: > 35.5 µM
- TGI [14]: > 84.4 µM
- TGI [15]: 0.923 µM
- TGI [16]: 6.52 µM
- TGI [17]: 35.1 µM
- TGI [18]: 13.9 µM
- TGI [19]: 43.8 µM
- TGI [20]: > 100 µM
- TGI [21]: > 85.1 µM
- TGI [22]: 15.7 µM
- TGI [23]: 7 µM
- TGI [24]: 65.8 µM
- TGI [25]: > 100 µM
- TGI [26]: > 100 µM
- TGI [27]: 6.47 µM
- TGI [28]: 8.13 µM
- TGI [29]: 3.38 µM
- TGI [30]: 1.15 µM
- TGI [31]: 29.7 µM
- TGI [32]: > 86.4 µM
- TGI [33]: 1.36 µM
- TGI [34]: > 38.3 µM
- TGI [35]: 4.35 µM
- TGI [36]: 0.809 µM
- TGI [37]: > 78.6 µM
- TGI [38]: 0.694 µM
- TGI [39]: 44.3 µM
- TGI [40]: 7.22 µM
- TGI [41]: 20.4 µM
- TGI [42]: 77.2 µM
- TGI [43]: > 81.9 µM
- TGI [44]: 73.5 µM
- TGI [45]: 51 µM
- TGI [46]: 17.1 µM
- TGI [47]: 21.7 µM
- TGI [48]: 37.1 µM
- TGI [49]: 23.6 µM
- TGI [50]: 5.55 µM
- TGI [51]: 42.6 µM
- TGI [52]: 53 µM
- TGI [53]: 39.2 µM
- TGI [54]: 12 µM
- TGI [55]: > 100 µM
- TGI [56]: > 100 µM
- TGI [57]: > 54.5 µM
- TGI [58]: 11 µM
- TGI [59]: 7.97 µM
